Read-outs that look alike come from different tables or passages of the source.
Assays:
EGFR(L858R/T790M) = target: T1, EGFR(L858R/T790M) (Homo sapiens, UniProt P00533, L858R/T790M); assay: EGFR biochemical assay (HTRF), IC50 determinations
T1 construct: purchased from Carna (GST-a.a. 669-1210)
In short: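 HTRF kinase reaction with biotin-TK peptide at room temperature, quenched with EDTA at 60 min and detected with PT66K/SAXL after 1 h. Without preincubation, enzyme starts the reaction with compound, ATP and peptide present. With preincubation, compound, enzyme and peptide sit at room temperature for a set time before ATP is added.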

[1] = target: human EGFR WT (NIH/3T3 cells, EGF-induced) (Homo sapiens, UniProt P00533); assay: EGFR target modulation in engineered NIH/3T3 cell lines (phospho-EGFR Y1068 AlphaLISA), EGFR WT; assay type: cell-based; settings: engineered NIH/3T3 cells, read-out: NIH3T3 IC50 (μM) EGFR (WT)
In short: (§1)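 Engineered NIH/3T3 cells were plated overnight, then exposed to a 12-point 1:3 compound series (from a 10 μM stock) for 3 hours at 37 °C. WT-expressing cells alone were stimulated with 50 ng/ml EGF for 5 minutes before lysis. IC50s came from non-linear fits of AlphaLISA signal.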

[2] = target: human EGFR L858R (NIH/3T3 cells) (Homo sapiens, UniProt P00533, L858R); assay: EGFR target modulation in engineered NIH/3T3 cell lines (phospho-EGFR Y1068 AlphaLISA), EGFR L858R; assay type: cell-based; settings: engineered NIH/3T3 cells, read-out: NIH3T3 IC50 (μM) EGFR (L858R)
In short: as §1

[3] = target: human EGFR L858R/T790M (NIH/3T3 cells) (Homo sapiens, UniProt P00533, L858R/T790M); assay: EGFR target modulation in engineered NIH/3T3 cell lines (phospho-EGFR Y1068 AlphaLISA), EGFR L858R/T790M; assay type: cell-based; settings: engineered NIH/3T3 cells, read-out: NIH3T3 IC50 (μM) EGFR (L858R/T790M)
In short: as §1

H1975 (EGFR L858/T790M) = H1975 (EGFR L858/T790M) (Homo sapiens, UniProt P00533, L858R/T790M); assay: EGFR target modulation in H1975 cell line (phospho-EGFR Y1173 ELISA); assay type: cell-based
Protocol: (§2) EGFR Target Modulation in H1975, H3255 and HCC827 Cell Lines Tissue Culture. Cells were maintained in 10% FBS/RPMI supplemented with 100 μg/ml Penicillin/Streptomycin (Hyclone #SH30236.01). […] The cells were allowed to incubate overnight in a 37° C., 5% CO2 humidified tissue culture incubator. […] The serial diluted compounds were transferred to the plate containing cells by using a 50 nl Pin Head device (Perkin Elmer) and the cells were placed back in the incubator for 3 hours. Phospho-EGFR ([…]) Target Modulation Assay. The media was reduced to 20 ul using a Bio-Tek ELx 405 SelectTM plate washer. […] The plates were shaken at 4° C. for 20 minutes. An aliquot of 25 ul from each well was transferred to pEGFR(Y1173) ELISA plates for analysis. Phospho-EGFR ([…]) ELISA. Solid white high-binding ELISA plates (Greiner #781074) were coated with 5 ug/ml anti-EGFR capture antibody (R&D Systems #AF231) overnight in 50 mM carbonate/bicarbonate pH 9.5 buffer. Plates were blocked with 1% BSA (Sigma #A7030) in PBS for 1 hour at room temperature. Wash steps were carried out with a Bio-Tek ELx405 SelectTM using 4 cycles of 100 ul TBS-T (20 mM Tris, 137 mM NaCl, 0.05% Tween-20) per well. […] Lysis was allowed to occur for 20 minutes on ice. A 25 ul aliquot was added to each well of the blocked ELISA plate and incubated overnight at 4° C. with gentle shaking. […] After washing, 1:2,000 anti-rabbit-HRP (Cell Signaling #7074) in 0.2% BSA/TBS-T was added and incubated for 1 hour at room temperature. Chemiluminescent detection was carried out with SuperSignal ELISA Pico substrate (ThermoScientific #37069). Signal was read on EnVision plate reader using built-in UltraLUM setting. Data Analysis. Control cells treated with EGF were set to 100% maximum response. […] With these parameters, the IC50's for each compound in each cell line was calculated using non-linear curve fitting analysis.

H3255 (EGFR L858R) = H3255 (EGFR L858R) (Homo sapiens, UniProt P00533, L858R); assay: EGFR target modulation in H3255 cell line (phospho-EGFR Y1173 ELISA); assay type: cell-based
Protocol: as §2

HEKn (EGFR WT) = HEKn (EGFR WT) (Homo sapiens, UniProt P00533); assay: EGFR target modulation in HEKn (EGFR-WT) cell line (phospho-EGFR Y1173 ELISA); assay type: cell-based; settings: value outside parentheses
Protocol: EGFR Target Modulation in HEKn (EGFR-WT) Cell Line Tissue Culture. Human neonatal epithelial keratinocytes (Invitrogen #C-001-5C) were maintained in EpiLife media (Invitrogen #[…]) supplemented with growth factors (Invitrogen #S-001-5). Cells were harvested with 0.05% Trypsin/EDTA (Hyclone #SH30236.01) and quenched with 5% FBS/EpiLife media. […] The serial diluted compounds were transferred to the plate containing cells by using a 50 nl Pin Head device (Perkin Elmer) and the cells were placed back in the incubator for 3 hours. […] Phospho-EGFR (Y1173) ELISA. Solid white high-binding ELISA plates (Greiner #781074) were coated with 5 ug/ml anti-EGFR capture antibody (R&D Systems #AF231) overnight in 50 mM carbonate/bicarbonate pH 9.5 buffer. […] Wash steps were carried out with a Bio-Tek ELx405 SelectTM using 4 cycles of 100 ul TBS-T (20 mM Tris, 137 mM NaCl, 0.05% Tween-20) per well. […] Lysis was allowed to occur for 20 minutes on ice. A 25 ul aliquot was added to each well of the blocked ELISA plate and incubated overnight at 4° C. with gentle shaking. […] After washing, 1:2,000 anti-rabbit-HRP (Cell Signaling #7074) in 0.2% BSA/TBS-T was added and incubated for 1 hour at room temperature. Chemiluminescent detection was carried out with SuperSignal ELISA Pico substrate (ThermoScientific #37069). Signal was read on EnVision plate reader using built-in UltraLUM setting. Data Analysis. Control cells treated with EGF were set to 100% maximum response. […] With these parameters, the IC50's for each compound in each cell line was calculated using non-linear curve fitting analysis.

[4] = EGFR (L858R/T790M) with 90 min pre-incubation, read-out: IC50 (μM) Column B
[5] = EGFR (L858R/T790M) with no pre-incubation, read-out: IC50 (μM) Column A

Chain of H1975 (EGFR L858/T790M) (P00533 25-1210 T790M/L858R): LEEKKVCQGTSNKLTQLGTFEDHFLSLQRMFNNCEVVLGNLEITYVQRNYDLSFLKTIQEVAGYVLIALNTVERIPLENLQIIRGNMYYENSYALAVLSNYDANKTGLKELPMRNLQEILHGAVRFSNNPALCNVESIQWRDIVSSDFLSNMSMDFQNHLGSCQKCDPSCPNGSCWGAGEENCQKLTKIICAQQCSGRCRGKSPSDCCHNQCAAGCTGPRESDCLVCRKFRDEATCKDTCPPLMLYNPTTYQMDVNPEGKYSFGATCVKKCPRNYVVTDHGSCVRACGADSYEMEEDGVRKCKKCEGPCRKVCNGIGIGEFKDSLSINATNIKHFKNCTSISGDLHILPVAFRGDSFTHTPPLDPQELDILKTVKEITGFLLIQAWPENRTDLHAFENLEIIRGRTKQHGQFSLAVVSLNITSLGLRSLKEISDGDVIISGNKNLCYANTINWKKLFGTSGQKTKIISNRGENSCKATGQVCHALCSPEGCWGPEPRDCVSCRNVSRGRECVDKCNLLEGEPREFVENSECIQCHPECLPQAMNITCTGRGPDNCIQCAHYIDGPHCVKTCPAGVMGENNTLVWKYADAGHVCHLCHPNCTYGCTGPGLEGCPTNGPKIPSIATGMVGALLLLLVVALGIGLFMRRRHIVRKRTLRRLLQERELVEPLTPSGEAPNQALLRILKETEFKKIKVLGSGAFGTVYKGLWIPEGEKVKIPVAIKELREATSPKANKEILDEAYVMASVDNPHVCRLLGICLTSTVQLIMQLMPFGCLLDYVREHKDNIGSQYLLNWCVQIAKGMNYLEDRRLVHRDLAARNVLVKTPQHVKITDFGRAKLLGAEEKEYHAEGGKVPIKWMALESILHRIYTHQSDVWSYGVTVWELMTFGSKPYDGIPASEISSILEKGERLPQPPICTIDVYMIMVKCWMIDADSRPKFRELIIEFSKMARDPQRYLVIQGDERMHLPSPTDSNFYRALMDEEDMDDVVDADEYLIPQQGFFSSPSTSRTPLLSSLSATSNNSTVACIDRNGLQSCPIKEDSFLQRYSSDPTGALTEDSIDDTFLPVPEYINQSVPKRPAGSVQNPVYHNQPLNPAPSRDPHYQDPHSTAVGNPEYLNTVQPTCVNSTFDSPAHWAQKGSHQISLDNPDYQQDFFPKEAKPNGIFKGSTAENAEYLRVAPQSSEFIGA
Chain of human EGFR L858R/T790M (NIH/3T3 cells) (P00533 25-1210 T790M/L858R): as above
Chain of human EGFR L858R (NIH/3T3 cells) (P00533 25-1210 L858R): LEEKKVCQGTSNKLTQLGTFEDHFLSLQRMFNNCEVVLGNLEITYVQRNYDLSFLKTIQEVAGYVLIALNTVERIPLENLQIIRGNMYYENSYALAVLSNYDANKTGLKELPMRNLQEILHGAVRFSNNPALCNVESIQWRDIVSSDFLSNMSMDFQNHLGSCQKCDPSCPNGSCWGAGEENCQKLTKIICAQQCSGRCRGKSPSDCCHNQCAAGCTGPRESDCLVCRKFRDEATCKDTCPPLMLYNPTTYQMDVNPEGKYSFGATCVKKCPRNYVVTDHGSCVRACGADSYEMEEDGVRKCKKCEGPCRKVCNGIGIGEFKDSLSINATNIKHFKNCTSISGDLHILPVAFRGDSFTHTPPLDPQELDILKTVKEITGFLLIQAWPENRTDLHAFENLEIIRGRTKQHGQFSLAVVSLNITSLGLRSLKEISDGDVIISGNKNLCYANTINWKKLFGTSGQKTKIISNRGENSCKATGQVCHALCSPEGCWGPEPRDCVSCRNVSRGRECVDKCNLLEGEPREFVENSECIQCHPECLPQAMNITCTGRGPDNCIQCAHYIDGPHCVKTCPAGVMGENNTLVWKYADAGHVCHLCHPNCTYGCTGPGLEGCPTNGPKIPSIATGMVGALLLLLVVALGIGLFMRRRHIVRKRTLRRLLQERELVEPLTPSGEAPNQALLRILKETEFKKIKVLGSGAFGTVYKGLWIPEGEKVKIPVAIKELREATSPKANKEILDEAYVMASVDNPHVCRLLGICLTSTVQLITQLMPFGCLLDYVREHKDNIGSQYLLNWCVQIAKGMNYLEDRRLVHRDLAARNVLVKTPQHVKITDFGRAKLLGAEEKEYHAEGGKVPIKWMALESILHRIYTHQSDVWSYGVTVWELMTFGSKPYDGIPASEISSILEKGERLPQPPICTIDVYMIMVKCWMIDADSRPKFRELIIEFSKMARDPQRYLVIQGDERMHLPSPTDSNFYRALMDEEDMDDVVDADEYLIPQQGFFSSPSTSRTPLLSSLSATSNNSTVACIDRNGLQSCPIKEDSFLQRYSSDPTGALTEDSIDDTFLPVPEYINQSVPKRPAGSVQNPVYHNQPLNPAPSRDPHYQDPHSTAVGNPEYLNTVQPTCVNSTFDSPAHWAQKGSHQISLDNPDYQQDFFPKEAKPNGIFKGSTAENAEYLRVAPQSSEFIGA
Chain of H3255 (EGFR L858R) (P00533 25-1210 L858R): as above

| Compound | IC50 (EGFR(L858R/T790M); [4]) | IC50 (EGFR(L858R/T790M); [5]) | IC50 [1] | IC50 [2] | IC50 [3] | IC50 (H1975 (EGFR L858/T790M)) | IC50 (H3255 (EGFR L858R)) | IC50 (HEKn (EGFR WT)) |
| --- | --- | --- | --- | --- | --- | --- | --- | --- |
| C=CC(=O)N1CCCC[C@@H](n2c(NC(=O)c3ccccc3)nc3cccc(CN4CCS(=O)(=O)CC4)c32)C1 [Example 17-132] | 0.001 µM | 0.041 µM | 2.87 µM | 0.047 µM | 0.012 µM | 9 nM | 108 nM | 2850 nM |
| C=CC(=O)N1CCC[C@@H](n2c(NC(=O)c3ccccc3)nc3cccc(C)c32)C1 [Example 17-108] | 0.005 µM | 0.048 µM | > 10 µM | 0.306 µM | 0.021 µM | 14 nM | 44 nM | > 10000 nM |
| Cc1noc(-c2cccc3nc(NC(=O)c4ccccc4)n(C4COCCN(C(=O)/C=C/CN(C)C)C4)c23)n1 (stereo not drawn) [Example 17-142] | 0.01 µM | 0.32 µM | 5.2 µM | 0.34 µM | 0.09 µM | 105 nM | 640 nM | > 10000 nM |
| Cc1cccc2nc(NC(=O)c3cccc(-n4cnnn4)c3)n(C3CCCCN(C(=O)/C=C/CN(C)C)C3)c12 (stereo not drawn) [Example 17-53] | < 0.001 µM | 0.002 µM | 0.058 µM | 0.003 µM | 0.002 µM | 2 nM | 4 nM | 261 nM |
| Cc1cccc2nc(NC(=O)c3cc(F)c(F)c(F)c3)n(C3CCCCN(C(=O)/C=C/CN(C)C)C3)c12 (stereo not drawn) [Example 17-33] | < 0.001 µM | 0.008 µM | 0.224 µM | 0.002 µM | 0.005 µM | 5 nM | 65 nM | 259 nM |
| C=CC(=O)N1CCCC[C@@H](n2c(NC(=O)c3ccccc3)nc3cccc(CN(C)C)c32)C1 [Example 17-129] | < 0.001 µM | 0.002 µM | 0.045 µM | 0.002 µM | 0.002 µM | 1 nM | 4 nM | 28 nM |
| Cc1cccc2nc(NC(=O)c3ccnnc3)n([C@@H]3CCCCN(C(=O)C#CCN(C)C)C3)c12 [Example 17-87] | < 0.001 µM | < 0.001 µM | 0.013 µM | < 0.001 µM | < 0.001 µM | 2 nM | < 1 nM | 37 nM |
| C=CC(=O)N1CCCC[C@@H](n2c(NC(=O)c3ccnnc3)nc3cccc(OC(C)C)c32)C1 [Example 17-86] | 0.004 µM | 0.04 µM | 0.45 µM | 0.03 µM | 0.008 µM | 12 nM | 57 nM | 710 nM |
| Cc1cc(C(=O)Nc2nc3cccc(C)c3n2[C@@H]2CCCCN(C(=O)/C=C/CN(C)C)C2)ccn1 [Example 7, (R,E)-N-(1-(1-(4-(dimethylamino)but-2-enoyl)azepan-3-yl)-7-methyl-1H-benzo[d]imidazol-2-yl)-2-methylisonicotinamide] | < 0.001 µM | 0.002 µM | 0.019 µM | 0.001 µM | 0.001 µM | 1 nM | 2 nM | 74 nM |

Next, values leading:

| IC50 (EGFR(L858R/T790M); [4]) | IC50 (EGFR(L858R/T790M); [5]) | IC50 [1] | IC50 [2] | IC50 [3] | IC50 (H1975 (EGFR L858/T790M)) | IC50 (H3255 (EGFR L858R)) | IC50 (HEKn (EGFR WT)) | Compound |
| --- | --- | --- | --- | --- | --- | --- | --- | --- |
| < 0.001 µM | 0.003 µM | 0.023 µM | 0.002 µM | 0.001 µM | 2 nM | 8 nM | 203 nM | Cc1cncc(C(=O)Nc2nc3cccc(C)c3n2[C@@H]2CCCCN(C(=O)/C=C/CN(C)C)C2)c1 [Example 17-68] |
| < 0.001 µM | 0.003 µM | 0.076 µM | 0.004 µM | 0.002 µM | 2 nM | 11 nM | 261 nM | Cc1cc(C(=O)Nc2nc3cccc(C)c3n2[C@@H]2CCCCN(C(=O)/C=C/CN(C)C)C2)cc(Cl)n1 [Example 17-74] |
| < 0.001 µM | 0.005 µM | 0.026 µM | 0.002 µM | 0.002 µM | 3 nM | 9 nM | 154 nM | Cc1cccc2nc(NC(=O)c3ccnc(F)c3)n(C3CCCCN(C(=O)/C=C/CN(C)C)C3)c12 (stereo not drawn) [Example 17-58] |
| < 0.001 µM | 0.007 µM | 0.303 µM | 0.006 µM | 0.006 µM | 9 nM | 11 nM | 720 nM | Cc1cc(C(=O)Nc2nc3cccc(Cl)c3n2[C@@H]2CCCCN(C(=O)/C=C/CN3CC[C@H](F)C3)C2)ccn1 [Example 3-2] |
| < 0.001 µM | < 0.001 µM | 0.004 µM | < 0.001 µM | < 0.001 µM | < 1 nM | 1 nM | 14 nM | Cc1cccc2nc(NC(=O)c3ccnc(-c4ccccc4)c3)n([C@@H]3CCCCN(C(=O)/C=C/CN(C)C)C3)c12 [Example 17-76] |
| < 0.001 µM | < 0.002 µM | 0.053 µM | 0.002 µM | 0.002 µM | 2 nM | 13 nM | 206 nM | Cc1cccc2nc(NC(=O)c3cccc(C#N)c3)n(C3CCCCN(C(=O)/C=C/CN(C)C)C3)c12 (stereo not drawn) [Example 17-42] |
| < 0.001 µM | 0.007 µM | 0.187 µM | 0.007 µM | 0.007 µM | 10 nM | 29 nM | 370 nM | Cc1cc(C(=O)Nc2nc3cccc(C)c3n2[C@@H]2CCCCN(C(=O)/C=C/CN(C)C)C2)cnn1 [Example 17-82] |
| < 0.001 µM | 0.006 µM | 0.14 µM | 0.005 µM | 0.005 µM | 4 nM | 5 nM | 285 nM | Cc1cccc2nc(NC(=O)c3ccncc3)n(C3CCCCN(C(=O)/C=C/CN(C)C)C3)c12 (stereo not drawn) [Example 17-35] |
| < 0.001 µM | 0.006 µM | 0.101 µM | 0.008 µM | 0.002 µM | 3 nM | 8 nM | 152 nM | C=CC(=O)N1CCCC[C@@H](n2c(NC(=O)c3ccnnc3)nc3ccc(OC)c(Cl)c32)C1 [Example 9, (R)—N-(1-(1-acryloylazepan-3-yl)-7-chloro-6-methoxy-1H-benzo[d]imidazol-2-yl)pyridazine-4-carboxamide] |

— patent US9440957B2, “Compounds and compositions for modulating EGFR Activity” (Novartis AG, priority 2012, dated 2016)
